Experimental data as given in US20110300198A1, “HYDROCOLLOID - ESSENTIAL OIL PATCHES” (priority 2010, published 2011).
Structures can show the parent of a compound that is named as a salt. Marks after values point to notes of the source that are not given here. One block for each compound: values may come before it.

Columns and labels:
[1] = cited from earlier work
[2] = cited from earlier work; remark: listed apart in the source
[3] = Ex-vivo transfer of essential-oil constituents through the skin in Franz diffusion cells; format: in vitro ADME, rat; conditions: for Accumulated concentration transferred through the skin: from gum karaya-Lavandula angustifolia essential oil patch (7.5% oil); for Accumulated concentration diffused through the skin: mixture of Lavandula angustifolia essential oil and almond oil rubbed on the skin
Experimental: Ex-vivo release studies were performed in Franz diffusion cells (FCs) (PermeGear, Hellertown, Pa.). Stomach skin pieces (1.2 cm×1.2 cm) from a male rat, which were stored in the freezer for 1 month, were thawed at room temperature and placed in glass FCs. The surface area for absorption was 0.64 cm2. The FCs were thermoregulated with a water jacket at 32° C. The 4.5-ml volume of the receptor chamber of the FC was filled with a receptor solution containing 5% (w/v) bovine serum albumin (BSA) diluted with phosphate buffer pH 7.4. […] The receptor solution was continuously agitated with a magnetic stirrer. During the experiments, the donor compartments and sampling arms were sealed to prevent evaporation. The fluid in the receptor chamber was removed after different periods of time (0, 6, 12, 24, 36 and 48 h) and replaced with fresh phosphate buffer solution. Samples were stored at 4° C. after sampling, prior to analysis. Samples were analyzed in a gas chromatograph (Agilent Technologies, Santa Clara, Calif.) with a WAX 30 m×0.32 mm×0.25 μm (Agilent) column.
Transdermal delivery of essential-oil components through rat skin from both lavender essential oil, which includes a high proportion of terpenoids, and Valencia orange essential oil, which includes a considerable amount of terpene, entrapped within gum-karaya-based patches, was examined. In addition to the regular patch adhered to the skin to be tested for essential-oil delivery by the traditional FCs and by in vivo tests (detailed below), another experiment was performed in which the skin was smeared with an almond-essential oil mixture, in order to partially imitate the situation in which the skin is massaged in an aromatherapy session. All experiments were conducted at ambient temperature and the inclusion of the essential oil as part of the almond oil-essential oil mixture (for the massage-like simulation) was equal in quantity and proportion to the inclusion of essential oil within the patch.

[4] = In-vivo experiment with HP-5 column, constituents in blood; parameters: species or system rat; conditions: male, Sprague-Dawley, rat, in vivo
Description: (§1) Male Sprague-Dawley rats, weighing 300-350 g, were used in the studies (Harlan, Rehovot, Israel). The experimental protocols were approved by the Hebrew University of Jerusalem Committee on the Use and Care of Animals. Rats were maintained under specified-pathogen-free (SPF) conditions and were allowed to acclimate to the environment for at least 7 days before their use in the study. Rats were anesthetized and the fur on their stomach shaved prior to exposure. Gum karaya patches with and without lavender essential oil were applied to the rat's stomach skin. Each rat was housed in an individual cage in order to prevent oral contamination of the essential oil by one rat eating another's patch. Blood samples (0.5 ml) were taken at 0, 12, 24, 36, 48 and 60 h from a nick at the tip of tail to determine contents of essential-oil components. Rats were restrained and the tail was gently massaged to facilitate blood collection. Blood samples were collected in vials containing 0.1 ml heparin (100 kU, Sigma). A 10-μl volume of aqueous linalyl isovalerate stock solution was added as an internal standard to each blood sample and samples were stored at −80° C. After 60 h, patches were removed and the application site was wiped with 70% alcohol. Animals were sacrificed and the patch of stomach skin to which the essential oil patch had been applied was removed and minced into small pieces. The skin pieces were placed in 1 ml of ethanol containing linalyl isovalerate as the internal standard and sonicated for 30 min after heating to 50° C. A 10-μl aliquot was then injected straight into the gas chromatograph. A urine sample (0.5 ml) was obtained from the bladder immediately after sacrifice. Urine samples were similarly analyzed by gas chromatography (GC).
Blood (0.5 ml) or phosphate buffer (0.5 ml) was collected at t=0, 12, 24, 36, 48 and 60 h. Blood samples were placed in Eppendorf heparin-coated glass vials (Agilent) by heparin-washed syringe, which were sealed with septa and screw caps. Each vial contained 100 μl of heparin and blood samples were frozen at −80° C. for storage. Prior to analysis, the blood or phosphate buffer was thawed to room temperature, a 10-μl volume of internal standards (6.5 mg linalyl isovalerate and 6.5 mg geranyl formate in 25 ml acetonitrile) was added to the vial and then the mixture was vortexed. The vials were tightly capped using a clear cap with septum. The septa were pre-punctured immediately before analysis using a needle to facilitate the insertion of the fiber sheath. The fiber sheath was inserted through the septum, and positioned to expose the fiber in the center of the headspace. The vial was placed on a heating block to maintain temperature at a constant 50° C. and the solid-phase microextraction (SPME) assembly was clamped securely. Absorption time was 30 min. No stirring was required. After absorption, the SPME fiber sheath was immediately transferred to the GC injector for desorption for 5 min and GC analysis.
GC was performed on an Agilent 7890A gas chromatograph equipped with a split/splitless capillary injector, flame ionization detection (FID) system and GC Chem Station (Version B.03.01; Agilent Technologies 2007). Chromatography was carried out on a WAX or HP-5 column (30 m×0.32 mm×0.25 μm). The GC operating conditions were: splitless or split 1:40 injector 240° C., oven 50° C. for 1 min and then 10° C. min^−1 to 160° C., then 25° C. min^−1 to 240° C. and held for 6 min; the carrier gas was hydrogen.
In this experiment, patches containing lavender essential oil were adhered to the abdomen area. Patches without essential oil served as blanks. […] Detection under splitless conditions facilitated the detection of linalyl acetate, linalool, camphor, borneol and α-terpineol, the latter two being additional constituents detected only under these conditions. High concentrations of linalool, borneol and camphor were detected, in comparison to low levels of terpeneol and linalyl acetate. […]

[5] = In-vivo experiment with WAX column, constituents in blood; parameters: species or system rat; conditions: 7.5% lavender oil patch on abdomen; split injection
Description: as §1, with “After 60 h, patches were removed and the application site was wiped with 70% alcohol. Animals were sacrificed and the patch of stomach skin to which the essential oil patch had been applied was removed and minced into small pieces. The skin pieces were placed in 1 ml of ethanol containing linalyl isovalerate as the internal standard and sonicated for 30 min after heating to 50° C. A 10-μl aliquot was then injected straight into the gas chromatograph. A urine sample (0.5 ml) was obtained from the bladder immediately after sacrifice.” left out, “(GC). […]” for “(GC).”
Patches that included lavender essential oil were adhered to the abdomen skin for 60 h. […] Between 12 and 36 h, a similar, non-significant change in levels was detected. […]

[6] = Preliminary in-vivo experiment, constituents in blood (GC, WAX column); parameters: species or system rat; conditions: rat, in vivo
[7] = Decomposition of internal standards in blood and skin extract (GC, GC-MS); format: in vitro ADME, rat; conditions: for Stability in the blood: GC-MS
Experimental: Linalyl isovalerate and geranyl formate were tested for their suitability as internal standards for linalool and linalyl acetate using headspace (HS)-SPME. Linalyl isovalerate was chosen as the most appropriate internal standard on the basis of area formed under the peak. A stock solution of linalyl isovalerate in acetonitrile (25 mg L^−1) was further diluted with acetonitrile to produce an aqueous solution of linalyl isovalerate (5 mg L^−1). A 10-μl volume of the aqueous linalyl isovalerate stock solution was added as the internal standard to each sample. Standard was prepared from 0.5 ml of blank blood, 10 μl internal standard (0.0026 mg linalyl isovalerate in 25 ml acetonitrile) and an appropriate dilution of lavender oil in 10 μl acetonitrile. Lavender oil was first dissolved in acetonitrile (625 mg L^−1) and further diluted with acetonitrile to make intermediate standards (0.5, 1, 5, 25 and 125 mg L^−1). The calibration curves were plotted using the peak area ratio of linalool (the main constituent of lavender oil) and linalyl isovalerate vs. linalool concentration. A standard stock solution of lavender oil (625 mg L^−1) was prepared in acetonitrile. Calibration standards for determination of linear dynamic range were prepared by serial dilutions with acetonitrile. For quantitative analysis of lavender oil in the blood, working standard solutions containing 0.5, 1, 5, 25 and 125 mg L^−1 of lavender were prepared by dilution of the 625 mg L^−1 solution with acetonitrile. […] The compounds absorbed on the fiber were detached and analyzed by exposing the fiber for 5 min in the injection port.
Two standards were checked for their suitability to this study: linalyl isovalerate and geranyl formate. […] Thus, although it is not possible to quantify linalool since the lavender essential oil may not be its only source, it is possible to quantify other components of lavender, and linalyl isovalerate was chosen to serve as the standard in the blood.

Compound: CC12CCC(CC1=O)C2(C)C (stereo not drawn) [Camphor]
Solubility in water [1]: relatively high | Log P [2]: about 3 | % diffused (of initial amount of entrapped essential oil) ([3]; Almond-lavandula mixture, 0 h): 0.00^a % | % diffused (of initial amount of entrapped essential oil) ([3]; Almond-lavandula mixture, 6 h): 0.01 ± 0.01^a % | % diffused (of initial amount of entrapped essential oil) ([3]; Almond-lavandula mixture, 12 h): 1.15 ± 1.26^a % | % diffused (of initial amount of entrapped essential oil) ([3]; Almond-lavandula mixture, 24 h): 2.28 ± 0.08^a % | % diffused (of initial amount of entrapped essential oil) ([3]; Lavandula patch, 0 h): 0.00^a % | % diffused (of initial amount of entrapped essential oil) ([3]; Lavandula patch, 6 h): 0.70 ± 0.04^b % | % diffused (of initial amount of entrapped essential oil) ([3]; Lavandula patch, 12 h): 1.02 ± 0.01^c % | % diffused (of initial amount of entrapped essential oil) ([3]; Lavandula patch, 24 h): 2.10 ± 0.32^d % | Accumulated concentration transferred through the skin ([3]; 6 h): 0.51 ± 0.33^a mg/L | Accumulated concentration transferred through the skin ([3]; 12 h): 0.74 ± 0.02^b mg/L | Accumulated concentration transferred through the skin ([3]; 24 h): 1.53 ± 0.13^c mg/L | Accumulated concentration diffused through the skin ([3]; 6 h): 0.01 ± 0.03^a mg L^−1 | Accumulated concentration diffused through the skin ([3]; 12 h): 0.89 ± 0.98^a mg L^−1 | Accumulated concentration diffused through the skin ([3]; 24 h): 1.78 ± 0.06^a mg L^−1 | Calculated steady-state flux ([3]; rubbing in a mixture with almond oil): 5.7×10^−4 mg.cm^−2 h^−1 | Calculated steady-state flux ([3]; transferred from a lavender essential oil patch): 4.3×10^−4 mg.cm^2 h^−1 | concentration at 60 h [4]: 35 ng/mL | Level in blood after 60 h [5]: no traces | Detection in blood [6]: No levels of camphor were detected

Compound: CC1(C)C2CCC1(C)C(O)C2 (stereo not drawn) [borneol, Borneol]
concentration at 60 h [4]: 31 ng/mL

Compound: C=C(C)[C@H]1CC=C(C)CC1 [d-Limonene]
Log P [2]: about 4

Compound: CC1=CCC(C(C)(C)O)CC1 (stereo not drawn) [α-Terpeneol, α-Terpineol]
Level in blood from 12 h onwards [4]: 5 to 9 ng/mL

More lines, now with the values ahead:

Stability in the blood [7]: decomposes in the blood
Compound: CC(C)=CCC/C(C)=C/COC=O [geranyl formate]

Stability in the blood [7]: decomposes in the blood | Stability in the skin extract ([7]; skin with essential oil-containing patch): did not decompose
Compound: C=CC(C)(CCC=C(C)C)OC(=O)CC(C)C (stereo not drawn) [linalyl isovalerate]
